Experimental data as given in patent publication US20250179017A1 (GUANGDONG NEWOPP BIOPHARMACEUTICALS CO., LTD., priority 2022, published 2025).

Biological target: T1, human EP2 (PTGER2) (Homo sapiens, UniProt P43116)
T1 construct: Cayman Chemical (Human EP2 Reporter Assay Kit)
Assay: EP2 antagonist assay (HEK-293 CNG membrane potential cAMP assay / 293T SEAP reporter assay, PGE2-stimulated)
Type: cell-based
Conditions: EP2 antagonist activity; concentration for 50% inhibition of signal compared to DMSO
Outline: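 HEK-293 CNG cells expressing human EP2: compound preincubated 15 min at RT, then PGE2 at 5 nM final, 30 min; membrane-potential dye fluorescence (ex 530, em 590 nm), background-subtracted, gave IC50. Alternatively, 293T cells reverse-transfected with EP2 and CRE-SEAP, compound plus 13 nM PGE2 for 6-8 h, SEAP luminescence.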

T1 sequence (P43116 whole entry): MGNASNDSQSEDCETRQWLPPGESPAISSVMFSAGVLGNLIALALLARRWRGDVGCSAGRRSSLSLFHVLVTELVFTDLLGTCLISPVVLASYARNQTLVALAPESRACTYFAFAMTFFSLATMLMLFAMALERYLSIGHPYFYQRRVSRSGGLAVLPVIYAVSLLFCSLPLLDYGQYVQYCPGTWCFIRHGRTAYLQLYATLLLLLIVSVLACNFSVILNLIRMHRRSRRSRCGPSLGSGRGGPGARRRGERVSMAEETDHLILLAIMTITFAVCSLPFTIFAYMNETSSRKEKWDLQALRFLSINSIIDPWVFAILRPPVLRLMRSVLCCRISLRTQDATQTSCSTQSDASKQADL

SMILES | IC50 [nM]
O=C(O)c1ccc(C2(NC(=O)c3cc(-c4cc(F)cc(C(F)(F)F)c4)cc4ccn(Cc5ccc(C(F)(F)F)cc5)c34)CC2)cc1 [Example 21, 4-(1-(5-(3-fluoro-5-(trifluoromethyl)phenyl)-1-(4-(trifluoromethyl)benzyl)-1H-indole-7-carboxamido)cyclopropyl)benzoic acid] | 100 to 1000
O=C(O)c1ccc(C2(NC(=O)c3ccc(Nc4ccc(F)c(Cl)c4)c4ccn(Cc5ccc(C(F)(F)F)cc5)c34)CC2)cc1 [Example 65, 4-(1-(4-((3-chloro-4-fluorophenyl)amino)-1-(4-(trifluoromethyl)benzyl)-1H-indole-7-carboxamido)cyclopropyl)benzoic acid] | 100 to 1000
CN(c1ccccc1)c1ccc(C(=O)NC2(c3ccc(C(=O)O)cc3)CC2)c2c1ccn2Cc1ccc(C(F)(F)F)cc1 [Example 46, 4-(1-(4-(methyl(phenyl)amino)-1-(4-(trifluoromethyl)benzyl)-1H-indole-7-carboxamido)cyclopropyl)benzoic acid] | ≥ 1000
O=C(O)c1ccc(CNC(=O)c2cc(-c3cccnc3)cc3ccn(Cc4cccc(C(F)(F)F)c4)c23)cc1 [Example 123, 4-((5-(pyridin-3-yl)-1-(3-(trifluoromethyl)benzyl)-1H-indole-7-carboxamido)methyl)benzoic acid] | 100 to 1000
O=C(O)c1ccc(CNC(=O)c2ccc(Nc3ccc(F)cc3)c3cnn(Cc4ccc5ccccc5c4)c23)cc1 [Example 182, 4-((4-((4-fluorophenyl)amino)-1-(naphthalen-2-ylmethyl)-1H-indazole-7-carboxamido)methyl)benzoic acid] | ≥ 1000
O=C(O)c1ccc(CNC(=O)c2ccc(Nc3ccc(F)c(Cl)c3)c3ccn(Cc4ccc(C(F)(F)F)cc4)c23)cc1 [Example 70] | < 100
N#Cc1ccc(Nc2ccc(C(=O)NC3(c4ccc(C(=O)O)cc4)CC3)c3c2ccn3Cc2ccc(C(F)(F)F)cc2)cc1 [Example 62, 4-(1-(4-((4-cyanophenyl)amino)-1-(4-(trifluoromethyl)benzyl)-1H-indole-7-carboxamido)cyclopropyl)benzoic acid] | ≥ 1000
C[C@@H](NC(=O)c1ccc(-c2cccc(C(F)(F)F)c2)c2ccn(Cc3ccc(C(F)(F)F)cc3)c12)c1ccc(C(=O)O)cc1 [Example 33, (R)-4-(1-(1-(4-(trifluoromethyl)benzyl)-4-(3-(trifluoromethyl)phenyl)-1H-indole-7-carboxamido)ethyl) benzoic acid] | ≥ 1000
O=C(O)c1ccc(CNC(=O)c2ccc(Nc3ccc(F)cc3)c3ccn(Cc4ccc5ccccc5c4)c23)cc1 [Example 183, ((4-((4-fluorophenyl)amino)-1-(naphthalen-2-ylmethyl)-1H-indole-7-carboxamido)methyl)benzoic acid] | < 100
O=C(O)c1ccc(CNC(=O)c2ccc(-c3ccccc3)c3ccn(Cc4ccc(C(F)(F)F)cc4)c23)cc1 [Example 26, 4-((4-phenyl-1-(4-(trifluoromethyl)benzyl)-1H-indole-7-carboxamido)methyl)benzoic acid] | 100 to 1000
C[C@H](NC(=O)c1cc(-c2ccc(F)c(F)c2)cc2cnn(Cc3ccc(-c4ccc(F)cc4)cc3)c12)c1ccc(C(=O)O)cc1 [Example 205, (S)-4-(1-(5-(3,4-difluorophenyl)-1-((4′-fluoro-[1,1′-biphenyl]-4-yl)methyl)-1H-indazole-7-carboxamido)ethyl)benzoic acid] | < 100
